Experiment [1] relates to KURAMOCHI
Kind of experiment: drug sensitivity score (DSS2) on cancer cell count; higher = more sensitive; extreme values may be limits of the assay. Conditions: 72 h. The procedure, abridged:
(§1)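 Ovarian cancer cells were grown alone or in 1:1 direct co-culture with lung or skin fibroblasts. They were plated onto 384-well plates pre-spotted acoustically with 528 approved and investigational compounds at 5 concentrations, then treated for 72 h. Cells were fixed, immunostained for CK8/18 with Hoechst, and imaged at 10× (4 fields) to count cancer cells. A drug sensitivity score (DSS2) was derived in Breeze from 4-parameter logistic fits, with screen quality checked by Z'.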

Experiment [2] has as its system OVCAR8. Described as above. To be noted: 72 h. The procedure, abridged: as §1
[3] abbreviates: co-cultured fibroblast: BJHTERT.
Where [4] appears, read: co-cultured fibroblast: none (monoculture).

As for `N#Cc1ccc(C(c2ccc(C#N)cc2)n2cncn2)cc1` [Letrozole], the drug sensitivity score in experiment [1] (setting [3]), in experiment [1] (co-cultured fibroblast: WI38), in experiment [1] (setting [4]), in experiment [2] (setting [3]), in experiment [2] (co-cultured fibroblast: WI38) and in experiment [2] (setting [4]) was 0 DSS each time.

With `Cc1ccc(C(=O)Nc2ccc(Oc3cc4cnn(C)c4cc3-c3cn[nH]c3)c(F)c2)c(=O)n1-c1ccc(F)cc1` [Merestinib], the drug sensitivity score in experiment [1] (setting [3]) was 0 DSS; in experiment [1] (co-cultured fibroblast: WI38), 1.5 DSS; in experiment [1] (setting [4]), 1.5 DSS; in experiment [2] (setting [3]), 0 DSS; in experiment [2] (co-cultured fibroblast: WI38), 0 DSS; in experiment [2] (setting [4]) it was 0.1 DSS.

`C[C@]12C=CC(=O)C=C1CC[C@@H]1[C@@H]2[C@@H](O)C[C@@]2(C)[C@H]1CC[C@]2(O)C(=O)CO` [Prednisolone]: the drug sensitivity score in experiment [1] (setting [3]) was found to be 0 DSS; in experiment [1] (co-cultured fibroblast: WI38), 0 DSS; in experiment [1] (setting [4]), 0 DSS; in experiment [2] (setting [3]) it was 0.3 DSS; in experiment [2] (co-cultured fibroblast: WI38), 0 DSS; in experiment [2] (setting [4]), 0 DSS.

For the compound `COc1ccc(Cn2ccc3ccc(C(=O)NO)cc32)cc1`, the drug sensitivity score in experiment [1] (setting [3]) came to 6.6 DSS; in experiment [1] (co-cultured fibroblast: WI38), 2.3 DSS; in experiment [1] (setting [4]), 3.2 DSS; in experiment [2] (setting [3]), 2.5 DSS; in experiment [2] (co-cultured fibroblast: WI38), 0.7 DSS; in experiment [2] (setting [4]), 3 DSS.

On to `O=C(O)CNC(=O)c1c(O)c2ccccc2n(Cc2ccccc2)c1=O` [IOX-2], for which the drug sensitivity score was 0.4 DSS in experiment [1] (setting [3]); 0 DSS in experiment [1] (co-cultured fibroblast: WI38); 1.3 DSS in experiment [1] (setting [4]); 0 DSS in experiment [2] (setting [3]); 0 DSS in experiment [2] (co-cultured fibroblast: WI38); 0.5 DSS in experiment [2] (setting [4]).

Regarding `Nc1cccc2c1C(=O)N(C1CCC(=O)NC1=O)C2=O` (stereo not drawn) [Pomalidomide], the drug sensitivity score in experiment [1] (setting [3]), in experiment [1] (co-cultured fibroblast: WI38), in experiment [1] (setting [4]), in experiment [2] (setting [3]), in experiment [2] (co-cultured fibroblast: WI38) and in experiment [2] (setting [4]) was 0 DSS each time.

In the case of `NS(=O)(=O)OC[C@@H]1C[C@@H](n2ccc3c(N[C@H]4CCc5ccccc54)ncnc32)C[C@@H]1O` [Pevonedistat], the drug sensitivity score worked out at 14 DSS in experiment [1] (setting [3]); 19.1 DSS in experiment [1] (co-cultured fibroblast: WI38); 18.2 DSS in experiment [1] (setting [4]); 20.9 DSS in experiment [2] (setting [3]); 12.5 DSS in experiment [2] (co-cultured fibroblast: WI38); 26.4 DSS in experiment [2] (setting [4]).

With `C[C@]1(O)C[C@@H](c2nc(-c3ccc4ccc(-c5ccccc5)nc4c3)c3c(N)nccn32)C1` [Linsitinib], the drug sensitivity score in experiment [1] (setting [3]) was 0 DSS; in experiment [1] (co-cultured fibroblast: WI38), 0 DSS; in experiment [1] (setting [4]), 0 DSS; in experiment [2] (setting [3]), 0 DSS; in experiment [2] (co-cultured fibroblast: WI38) it was 0 DSS; in experiment [2] (setting [4]), 1.7 DSS.

Regarding `Cn1nnc2c(C(N)=O)ncn2c1=O` [Temozolomide], the drug sensitivity score is 0 DSS in experiment [1] (setting [3]); 2.2 DSS in experiment [1] (co-cultured fibroblast: WI38); 9.1 DSS in experiment [1] (setting [4]); 0 DSS in experiment [2] (setting [3]); 0 DSS in experiment [2] (co-cultured fibroblast: WI38); 9.8 DSS in experiment [2] (setting [4]).

Take `Cc1nn(C)c(COc2ccc(N3CCN(S(=O)(=O)N(C)C)CC3)cc2)c1-c1cccc2c(CCCOc3cccc4ccccc34)c(C(=O)O)n(CCN3CCOCC3)c12`: the drug sensitivity score was 5.7 DSS in experiment [1] (setting [3]); 8.5 DSS in experiment [1] (co-cultured fibroblast: WI38); 10.3 DSS in experiment [1] (setting [4]); 4.7 DSS in experiment [2] (setting [3]); 4 DSS in experiment [2] (co-cultured fibroblast: WI38); 8.2 DSS in experiment [2] (setting [4]).

Take `CC[C@]1(O)C[C@@H]2CN(CCc3c([nH]c4ccccc34)[C@@](C(=O)OC)(c3cc4c(cc3OC)N(C)[C@H]3[C@@](O)(C(=O)OC)[C@H](OC(C)=O)[C@]5(CC)C=CCN6CC[C@]43[C@@H]65)C2)C1` [Vinblastine]: the drug sensitivity score was determined as 4.9 DSS in experiment [1] (setting [3]); 4.2 DSS in experiment [1] (co-cultured fibroblast: WI38); 20.8 DSS in experiment [1] (setting [4]); 18.9 DSS in experiment [2] (setting [3]); 5.2 DSS in experiment [2] (co-cultured fibroblast: WI38); 15.7 DSS in experiment [2] (setting [4]).

Turning to `C[C@H]1C[C@@H](n2c(Nc3ccc(OC(F)(F)F)cc3)nc3cc(CCC(=O)O)ccc32)CC(C)(C)C1`, the drug sensitivity score in experiment [1] (setting [3]), in experiment [1] (co-cultured fibroblast: WI38), in experiment [1] (setting [4]), in experiment [2] (setting [3]), in experiment [2] (co-cultured fibroblast: WI38) and in experiment [2] (setting [4]) was 0 DSS throughout.

`O=C1Cc2cc(C(=O)NC3C[C@H]4CC[C@@H](C3)N4S(=O)(=O)CC3CCN(CCCC(F)(F)F)CC3)c(Cl)cc2N1` (stereo partly drawn): the drug sensitivity score in experiment [1] (setting [3]) was determined as 0 DSS; in experiment [1] (co-cultured fibroblast: WI38), 0.1 DSS; in experiment [1] (setting [4]), 0 DSS; in experiment [2] (setting [3]) it was 0 DSS; in experiment [2] (co-cultured fibroblast: WI38), 0 DSS; in experiment [2] (setting [4]), 0 DSS.

(Values after the supplement of paper PMC12420376.)
